Tests used:
human TLR9 = human TLR9 (Homo sapiens (Human), UniProt Q9NR96); assay: TLR9 inhibition reporter assay (HEK-Blue cells, SEAP reporter, ODN2006 stimulation); details: read-out: TLR9 IC50, HEK-Blue cells overexpressing human TLR9, ODN2006 5 nM;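 note: compounds tested over 0.05 nM to 50 µM, 22 h incubation, inhibition taken as SEAP signal drop from agonist plus DMSO wells toward a known inhibitor control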
human TLR7 = human TLR7 (Homo sapiens (Human), UniProt Q9NYK1); assay: TLR7 inhibition reporter assay (HEK-Blue cells, SEAP reporter, gardiquimod stimulation); assay type: cell-based; details: HEK-Blue cells overexpressing human TLR7, gardiquimod 7.5 μM
human TLR8 = human TLR8 (Homo sapiens (Human), UniProt Q9NR97); assay: TLR8 inhibition reporter assay (HEK-Blue cells, SEAP reporter, R848 stimulation); details: read-out: TLR8 IC50, HEK-Blue cells overexpressing human TLR8, R848 15.9 μM;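 note: compounds tested from 0.05 nM to 50 µM, 22 h at 37 °C, SEAP measured with HEK-Blue Detection, inhibition relative to agonist plus DMSO versus a known inhibitor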
Sequence of human TLR8 (Q9NR97 27-1041): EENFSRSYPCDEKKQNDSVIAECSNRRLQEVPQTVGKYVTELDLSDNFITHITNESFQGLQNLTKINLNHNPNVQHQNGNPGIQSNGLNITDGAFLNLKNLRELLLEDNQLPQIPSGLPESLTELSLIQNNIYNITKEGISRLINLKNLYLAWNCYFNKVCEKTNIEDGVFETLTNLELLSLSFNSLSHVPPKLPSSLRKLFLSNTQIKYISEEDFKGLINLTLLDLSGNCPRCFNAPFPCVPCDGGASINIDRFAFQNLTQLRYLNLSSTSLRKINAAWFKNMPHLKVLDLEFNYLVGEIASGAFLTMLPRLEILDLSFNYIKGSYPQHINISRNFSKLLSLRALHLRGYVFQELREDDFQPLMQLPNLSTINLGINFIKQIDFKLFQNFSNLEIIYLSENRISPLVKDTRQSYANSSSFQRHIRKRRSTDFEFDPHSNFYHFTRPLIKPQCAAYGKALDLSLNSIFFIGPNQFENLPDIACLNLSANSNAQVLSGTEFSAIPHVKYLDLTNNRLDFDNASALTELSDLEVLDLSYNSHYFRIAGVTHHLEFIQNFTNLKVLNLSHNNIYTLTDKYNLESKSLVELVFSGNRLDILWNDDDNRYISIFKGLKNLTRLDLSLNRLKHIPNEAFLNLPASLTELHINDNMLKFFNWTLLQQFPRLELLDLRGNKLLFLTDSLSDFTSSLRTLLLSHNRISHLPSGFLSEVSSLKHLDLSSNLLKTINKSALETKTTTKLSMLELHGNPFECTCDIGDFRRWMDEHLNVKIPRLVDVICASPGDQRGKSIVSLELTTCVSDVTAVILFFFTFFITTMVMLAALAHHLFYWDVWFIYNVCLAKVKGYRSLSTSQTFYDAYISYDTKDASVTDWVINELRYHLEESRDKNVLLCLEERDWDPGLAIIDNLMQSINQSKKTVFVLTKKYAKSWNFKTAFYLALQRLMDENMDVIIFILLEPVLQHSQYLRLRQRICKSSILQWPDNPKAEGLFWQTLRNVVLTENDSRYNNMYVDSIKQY

Sequence of human TLR9 (Q9NR96 26-1032): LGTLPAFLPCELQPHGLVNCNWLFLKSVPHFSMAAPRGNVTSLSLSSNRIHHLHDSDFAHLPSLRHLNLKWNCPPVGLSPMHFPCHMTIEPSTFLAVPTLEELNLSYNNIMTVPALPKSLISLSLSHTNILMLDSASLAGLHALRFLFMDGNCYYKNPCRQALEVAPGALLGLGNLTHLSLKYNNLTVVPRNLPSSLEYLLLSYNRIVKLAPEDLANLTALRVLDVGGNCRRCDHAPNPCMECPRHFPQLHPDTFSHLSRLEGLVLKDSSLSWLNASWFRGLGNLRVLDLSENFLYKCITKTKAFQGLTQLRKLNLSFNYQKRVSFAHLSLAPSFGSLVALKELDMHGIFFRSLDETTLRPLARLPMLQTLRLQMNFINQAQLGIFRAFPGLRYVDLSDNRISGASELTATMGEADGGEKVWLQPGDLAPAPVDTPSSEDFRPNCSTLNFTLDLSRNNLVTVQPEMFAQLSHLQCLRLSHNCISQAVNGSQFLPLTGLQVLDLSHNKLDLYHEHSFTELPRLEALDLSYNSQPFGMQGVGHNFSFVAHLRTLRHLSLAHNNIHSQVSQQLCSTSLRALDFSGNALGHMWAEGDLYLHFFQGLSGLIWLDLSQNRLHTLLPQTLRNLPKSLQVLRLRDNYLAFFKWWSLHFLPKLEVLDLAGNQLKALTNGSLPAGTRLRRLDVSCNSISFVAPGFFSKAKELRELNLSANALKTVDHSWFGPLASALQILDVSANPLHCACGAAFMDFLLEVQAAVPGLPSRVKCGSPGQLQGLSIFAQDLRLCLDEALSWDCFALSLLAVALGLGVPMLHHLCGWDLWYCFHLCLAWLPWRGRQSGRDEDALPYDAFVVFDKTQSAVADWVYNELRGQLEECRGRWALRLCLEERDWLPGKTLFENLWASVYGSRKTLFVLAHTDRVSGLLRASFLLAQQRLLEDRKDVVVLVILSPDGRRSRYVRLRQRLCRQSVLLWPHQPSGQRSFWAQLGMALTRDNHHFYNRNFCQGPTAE
Sequence of human TLR7 (Q9NYK1 27-1049): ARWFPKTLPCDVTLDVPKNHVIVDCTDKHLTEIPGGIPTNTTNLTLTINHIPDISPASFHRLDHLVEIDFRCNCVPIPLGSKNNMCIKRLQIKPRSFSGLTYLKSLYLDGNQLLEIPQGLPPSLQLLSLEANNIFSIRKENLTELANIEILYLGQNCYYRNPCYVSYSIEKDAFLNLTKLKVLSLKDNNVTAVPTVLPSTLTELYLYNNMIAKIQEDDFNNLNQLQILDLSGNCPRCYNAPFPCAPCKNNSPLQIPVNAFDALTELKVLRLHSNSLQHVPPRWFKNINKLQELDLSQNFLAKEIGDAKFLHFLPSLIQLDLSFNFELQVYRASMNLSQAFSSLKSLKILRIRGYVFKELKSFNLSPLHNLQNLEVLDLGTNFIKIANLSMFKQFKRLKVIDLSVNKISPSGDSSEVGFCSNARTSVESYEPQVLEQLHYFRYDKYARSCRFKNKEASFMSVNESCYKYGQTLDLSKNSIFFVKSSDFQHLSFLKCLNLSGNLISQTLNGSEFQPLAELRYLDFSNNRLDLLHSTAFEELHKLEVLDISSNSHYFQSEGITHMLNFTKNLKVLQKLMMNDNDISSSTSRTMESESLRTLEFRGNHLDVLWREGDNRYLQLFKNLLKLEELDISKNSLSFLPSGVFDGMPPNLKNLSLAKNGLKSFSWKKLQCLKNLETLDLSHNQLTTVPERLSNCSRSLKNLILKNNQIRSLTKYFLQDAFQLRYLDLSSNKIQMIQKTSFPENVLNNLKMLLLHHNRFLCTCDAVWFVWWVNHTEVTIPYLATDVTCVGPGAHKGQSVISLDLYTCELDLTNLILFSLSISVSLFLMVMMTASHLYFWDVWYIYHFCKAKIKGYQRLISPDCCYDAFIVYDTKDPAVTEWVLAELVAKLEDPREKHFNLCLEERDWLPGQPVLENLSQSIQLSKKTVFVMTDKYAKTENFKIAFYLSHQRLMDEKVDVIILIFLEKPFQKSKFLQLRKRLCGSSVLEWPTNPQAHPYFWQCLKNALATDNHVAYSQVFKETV

SMILES | IC50 (human TLR9) [nM] | IC50 (human TLR7) [nM] | IC50 (human TLR8) [nM]
FC(F)Cc1c(-c2ccnc(Cl)c2)[nH]c2ccc(C3CCNCC3)cc12 [Example 494, 2-(2-chloropyridin-4-yl)-3-(2,2-difluoroethyl)-5-(piperidin-4-yl)-1H-indole] | 2040 | 36.5 | 66.4
Cc1cc(-c2[nH]c3ccc(C4CC(C)(C)N(C)C(C)(C)C4)cc3c2C(C)C)cc(C)n1 [Example 496, 2-(2,6-dimethylpyridin-4-yl)-3-isopropyl-5-(1,2,2,6,6-pentamethylpiperidin-4-yl)-1H-indole] | > 50000 | 7190 | 9590
CNC(=O)CN1CCC(c2ccc3[nH]c(-c4cc(C)nc(F)c4)c(C(C)C)c3c2)CC1 [Example 498, 2-(4-(2-(2-fluoro-6-methylpyridin-4-yl)-3-isopropyl-1H-indol-5-yl)piperidin-1-yl)-N-methylacetamide] | 6940 | 834 | 1240
CC(=O)N1CCC(c2ccc3[nH]c(-c4cc(C)nc(F)c4)c(C(C)C)c3c2)CC1 [Example 499, 1-(4-(2-(2-fluoro-6-methylpyridin-4-yl)-3-isopropyl-1H-indol-5-yl)piperidin-1-yl)ethan-1-one] | > 50000 | 3690 | 10700
Cc1cc(-c2[nH]c3ccc(C4CCN(CC(=O)N(C)C)CC4)cc3c2C(C)C)cc(F)n1 [Example 500, 2-(4-(2-(2-fluoro-6-methylpyridin-4-yl)-3-isopropyl-1H-indol-5-yl)piperidin-1-yl)-N,N-dimethylacetamide] | 3320 | 6.3 | 14.2
Cc1cc(-c2[nH]c3ccc(C4CCN(C(=O)C5CC(=O)N(C)C5)CC4)cc3c2C(C)C)cc(F)n1 (stereo not drawn) [Example 502, 4-(4-(2-(2-fluoro-6-methylpyridin-4-yl)-3-isopropyl-1H-indol-5-yl)piperidine-1-carbonyl)-1-methylpyrrolidin-2-one] | 24700 | 28.4 | 156
CC(=O)N1CCC(c2ccc3[nH]c(-c4cc(C)nc(C5CC5)c4)c(C(C)C)c3c2)CC1 [Example 504, 1-(4-(2-(2-cyclopropyl-6-methylpyridin-4-yl)-3-isopropyl-1H-indol-5-yl)piperidin-1-yl)ethan-1-one] | 33900 | 64.2 | 638
Cc1cc(-c2[nH]c3ccc(C4CCN(C(=O)C5CC(=O)N(C)C5)CC4)cc3c2C(C)C)cc(C2CC2)n1 (stereo not drawn) [Example 507, 4-(4-(2-(2-cyclopropyl-6-methylpyridin-4-yl)-3-isopropyl-1H-indol-5-yl)piperidine-1-carbonyl)-1-methylpyrrolidin-2-one] | 19000 | 52 | 346
Cc1cc(-c2[nH]c3ccc(C4CCN(C(=O)CN(C)C)CC4)cc3c2C(C)C)ccn1 [Example 509, 2-(dimethylamino)-1-(4-(3-isopropyl-2-(2-methylpyridin-4-yl)-1H-indol-5-yl)piperidin-1-yl)ethan-1-one] | 3710 | 20 | 21.9
CNC(=O)CN1CCC(c2ccc3[nH]c(-c4ccnc(C)c4)c(C(C)C)c3c2)CC1 [Example 513] | 2260 | 13.5 | 9.8
CNC(=O)CN1CCC(c2ccc3[nH]c(-c4cc(C5CC5)ncc4F)c(C(C)C)c3c2)CC1 [Example 514, 2-(4-(2-(2-cyclopropyl-5-fluoropyridin-4-yl)-3-isopropyl-1H-indol-5-yl)piperidin-1-yl)-N-methylacetamide] | 10900 | 60.3 | 269
CC(C)c1c(-c2cc(C3CC3)ncc2F)[nH]c2ccc(C3CCN(CC(=O)N(C)C)CC3)cc12 [Example 515, 2-(4-(2-(2-cyclopropyl-5-fluoropyridin-4-yl)-3-isopropyl-1H-indol-5-yl)piperidin-1-yl)-N,N-dimethylacetamide] | 2220 | 19.8 | 136
CC(C)c1c(-c2cc(C3CC3)ncc2F)[nH]c2ccc(C3CCN(C(=O)C4CC(=O)N(C)C4)CC3)cc12 (stereo not drawn) [Example 517, 4-(4-(2-(2-cyclopropyl-5-fluoropyridin-4-yl)-3-isopropyl-1H-indol-5-yl)piperidine-1-carbonyl)-1-methylpyrrolidin-2-one] | > 50000 | 144 | 1150
COc1cc(-c2[nH]c3ccc(C4CCN(C(=O)CN(C)C)CC4)cc3c2C(C)C)ccn1 [Example 521, 2-(dimethylamino)-1-(4-(3-isopropyl-2-(2-methoxypyridin-4-yl)-1H-indol-5-yl)piperidin-1-yl)ethan-1-one] | 3710 | 41.6 | 115

Further lines, results first:

IC50 (human TLR9) [nM] | IC50 (human TLR7) [nM] | IC50 (human TLR8) [nM] | SMILES
1640 | 84.5 | 498 | Cc1cc(-c2[nH]c3ccc(C4CCN(C(C)C(=O)N(C)C)CC4)cc3c2CC(F)F)cc(C)n1 (stereo not drawn) [Example 493, 2-(4-(3-(2,2-difluoroethyl)-2-(2,6-dimethylpyridin-4-yl)-1H-indol-5-yl)piperidin-1-yl)-N,N-dimethylpropanamide]
266 | 2.7 | 13.1 | Cc1cc(-c2[nH]c3ccc(C4CCN(C(=O)C5CCN(C(C)C)CC5)CC4)cc3c2C(C)C)cc(C)n1 [Example 497, (4-(2-(2,6-dimethylpyridin-4-yl)-3-isopropyl-1H-indol-5-yl)piperidin-1-yl)(1-isopropylpiperidin-4-yl)methanone]
992 | 5.5 | 30.3 | Cc1cc(-c2[nH]c3ccc(C4CCN(C(=O)CN(C)C)CC4)cc3c2C(C)C)cc(F)n1 [Example 501, 2-(dimethylamino)-1-(4-(2-(2-fluoro-6-methylpyridin-4-yl)-3-isopropyl-1H-indol-5-yl)piperidin-1-yl)ethan-1-one]
1230 | 10.8 | 24.1 | CNC(=O)CN1CCC(c2ccc3[nH]c(-c4cc(C)nc(C5CC5)c4)c(C(C)C)c3c2)CC1 [Example 503, 2-(4-(2-(2-cyclopropyl-6-methylpyridin-4-yl)-3-isopropyl-1H-indol-5-yl)piperidin-1-yl)-N-methylacetamide]
710 | 5.9 | 27.1 | Cc1cc(-c2[nH]c3ccc(C4CCN(CC(=O)N(C)C)CC4)cc3c2C(C)C)cc(C2CC2)n1 [Example 505, 2-(4-(2-(2-cyclopropyl-6-methylpyridin-4-yl)-3-isopropyl-1H-indol-5-yl)piperidin-1-yl)-N,N-dimethylacetamide]
1100 | 11.1 | 42.7 | Cc1cc(-c2[nH]c3ccc(C4CCN(C(=O)CN(C)C)CC4)cc3c2C(C)C)cc(C2CC2)n1 [Example 506, 1-(4-(2-(2-cyclopropyl-6-methylpyridin-4-yl)-3-isopropyl-1H-indol-5-yl)piperidin-1-yl)-2-(dimethylamino)ethan-1-one]
592 | 8.8 | 57.9 | CNCC(=O)N1CCC(c2ccc3[nH]c(-c4cc(C)nc(C5CC5)c4)c(C(C)C)c3c2)CC1 [Example 508, 1-(4-(2-(2-cyclopropyl-6-methylpyridin-4-yl)-3-isopropyl-1H-indol-5-yl)piperidin-1-yl)-2-(methylamino)ethan-1-one]
695 | 8.8 | 8.6 | CNCC(=O)N1CCC(c2ccc3[nH]c(-c4ccnc(C)c4)c(C(C)C)c3c2)CC1 [Example 510, 1-(4-(3-isopropyl-2-(2-methylpyridin-4-yl)-1H-indol-5-yl)piperidin-1-yl)-2-(methylamino)ethan-1-one]
1460 | 32.6 | 31.3 | Cc1cc(-c2[nH]c3ccc(C4CCN(C(=O)CNC[C@@H](O)CO)CC4)cc3c2C(C)C)ccn1 [Example 511, (R)-2-((2,3-dihydroxypropyl)amino)-1-(4-(3-isopropyl-2-(2-methylpyridin-4-yl)-1H-indol-5-yl)piperidin-1-yl)ethan-1-one]
1060 | 13 | 11.7 | Cc1cc(-c2[nH]c3ccc(C4CCN(CC(=O)N(C)C)CC4)cc3c2C(C)C)ccn1 [Example 512, 2-(4-(3-isopropyl-2-(2-methylpyridin-4-yl)-1H-indol-5-yl)piperidin-1-yl)-N,N-dimethylacetamide]
1460 | 12.1 | 190 | CC(C)c1c(-c2cc(C3CC3)ncc2F)[nH]c2ccc(C3CCN(C(=O)CN(C)C)CC3)cc12 [Example 516, 1-(4-(2-(2-cyclopropyl-5-fluoropyridin-4-yl)-3-isopropyl-1H-indol-5-yl)piperidin-1-yl)-2-(dimethylamino)ethan-1-one]
1610 | 15.1 | 257 | CNCC(=O)N1CCC(c2ccc3[nH]c(-c4cc(C5CC5)ncc4F)c(C(C)C)c3c2)CC1 [Example 518, 1-(4-(2-(2-cyclopropyl-5-fluoropyridin-4-yl)-3-isopropyl-1H-indol-5-yl)piperidin-1-yl)-2-(methylamino)ethan-1-one]
437 | 42.7 | 27.1 | COc1cc(-c2[nH]c3ccc(C4CCN(Cc5c[nH]c(C)n5)CC4)cc3c2C(C)C)ccn1 [Example 520, 3-isopropyl-2-(2-methoxypyridin-4-yl)-5-(1-((2-methyl-1H-imidazol-4-yl)methyl)piperidin-4-yl)-1H-indole]
2010 | 23.6 | 47.9 | CC(C)c1c(-c2ccnc(F)c2)[nH]c2ccc(C3CCN(C(=O)CN(C)C)CC3)cc12 [Example 522, 2-(dimethylamino)-1-(4-(2-(2-fluoropyridin-4-yl)-3-isopropyl-1H-indol-5-yl)piperidin-1-yl)ethan-1-one]
